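48-hour exposure; five concentrations; linearly interpolated endpoints. TGI: total growth inhibition.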
What was measured:
Experiment in all cases: NCI-60 cell line screen, 48 h
M14 melanoma = tested on: M14 melanoma
DU-145 prostate = tested on: DU-145 prostate
T-47D breast = tested on: T-47D breast
SK-MEL-2 melanoma = tested on: SK-MEL-2 melanoma
HS 578T breast = tested on: HS 578T breast
KM12 colon = tested on: KM12 colon
A549 NSCLC = tested on: A549 NSCLC
U251 CNS = tested on: U251 CNS
UO-31 renal = tested on: UO-31 renal
HCT-116 colon = tested on: HCT-116 colon
MDA-MB-435 = tested on: MDA-MB-435
MDA-N = tested on: MDA-N
HT29 colon = tested on: HT29 colon
HOP-92 NSCLC = tested on: HOP-92 NSCLC
BT-549 breast = tested on: BT-549 breast
HCC-2998 colon = tested on: HCC-2998 colon
RXF 393 renal = tested on: RXF 393 renal
786-0 renal = tested on: 786-0 renal
SR leukemia = tested on: SR leukemia
MCF7 breast = tested on: MCF7 breast
CCRF-CEM leukemia = tested on: CCRF-CEM leukemia
MDA-MB-231 breast = tested on: MDA-MB-231 breast
SF-268 CNS = tested on: SF-268 CNS
OVCAR-3 ovarian = tested on: OVCAR-3 ovarian
COLO 205 colon = tested on: COLO 205 colon
CAKI-1 renal = tested on: CAKI-1 renal
K-562 leukemia = tested on: K-562 leukemia
SK-MEL-5 melanoma = tested on: SK-MEL-5 melanoma
HL-60(TB) leukemia = tested on: HL-60(TB) leukemia
TK-10 renal = tested on: TK-10 renal
HOP-62 NSCLC = tested on: HOP-62 NSCLC
NCI-H23 lung = tested on: NCI-H23 lung
MALME-3M melanoma = tested on: MALME-3M melanoma
SNB-19 CNS = tested on: SNB-19 CNS
UACC-257 melanoma = tested on: UACC-257 melanoma
LOX IMVI melanoma = tested on: LOX IMVI melanoma
EKVX NSCLC = tested on: EKVX NSCLC
SF-539 CNS = tested on: SF-539 CNS
NCI-H522 lung = tested on: NCI-H522 lung
HCT-15 colon = tested on: HCT-15 colon
UACC-62 melanoma = tested on: UACC-62 melanoma
SF-295 CNS = tested on: SF-295 CNS
RPMI-8226 leukemia = tested on: RPMI-8226 leukemia
ACHN renal = tested on: ACHN renal
MOLT-4 leukemia = tested on: MOLT-4 leukemia
SK-OV-3 ovarian = tested on: SK-OV-3 ovarian
IGROV1 ovarian = tested on: IGROV1 ovarian
SK-MEL-28 melanoma = tested on: SK-MEL-28 melanoma
NCI-H460 lung = tested on: NCI-H460 lung
OVCAR-5 ovarian = tested on: OVCAR-5 ovarian
PC-3 prostate = tested on: PC-3 prostate
SN12C renal = tested on: SN12C renal
OVCAR-4 ovarian = tested on: OVCAR-4 ovarian
SW-620 colon = tested on: SW-620 colon
NCI-H226 lung = tested on: NCI-H226 lung
SNB-75 CNS = tested on: SNB-75 CNS
A498 renal = tested on: A498 renal

CSC(SC)=C(C#N)C(=O)Nc1ccc(C)cc1
TGI (M14 melanoma): > 100 µM | TGI (DU-145 prostate): > 100 µM | TGI (T-47D breast): > 100 µM | TGI (SK-MEL-2 melanoma): > 100 µM | TGI (HS 578T breast): > 100 µM | TGI (KM12 colon): > 100 µM | TGI (A549 NSCLC): > 100 µM | TGI (U251 CNS): > 100 µM | TGI (UO-31 renal): > 100 µM | TGI (HCT-116 colon): > 100 µM | TGI (MDA-MB-435): > 100 µM | TGI (MDA-N): > 100 µM | TGI (HT29 colon): > 100 µM | TGI (HOP-92 NSCLC): 54.8 µM | TGI (BT-549 breast): > 100 µM | TGI (HCC-2998 colon): > 100 µM | TGI (RXF 393 renal): > 100 µM | TGI (786-0 renal): > 100 µM | TGI (SR leukemia): > 100 µM | TGI (MCF7 breast): > 100 µM | TGI (CCRF-CEM leukemia): > 100 µM | TGI (MDA-MB-231 breast): > 100 µM | TGI (SF-268 CNS): > 100 µM | TGI (OVCAR-3 ovarian): > 100 µM | TGI (COLO 205 colon): > 100 µM | TGI (CAKI-1 renal): > 100 µM | TGI (K-562 leukemia): > 100 µM | TGI (SK-MEL-5 melanoma): > 100 µM | TGI (HL-60(TB) leukemia): > 100 µM | TGI (TK-10 renal): > 100 µM | TGI (HOP-62 NSCLC): > 100 µM | TGI (NCI-H23 lung): > 100 µM | TGI (MALME-3M melanoma): > 100 µM | TGI (SNB-19 CNS): > 100 µM | TGI (UACC-257 melanoma): > 100 µM | TGI (LOX IMVI melanoma): > 100 µM | TGI (EKVX NSCLC): > 100 µM | TGI (SF-539 CNS): > 100 µM | TGI (NCI-H522 lung): > 100 µM | TGI (HCT-15 colon): > 100 µM | TGI (UACC-62 melanoma): > 100 µM | TGI (SF-295 CNS): > 100 µM | TGI (RPMI-8226 leukemia): > 100 µM | TGI (ACHN renal): > 100 µM | TGI (MOLT-4 leukemia): > 100 µM | TGI (SK-OV-3 ovarian): > 100 µM | TGI (IGROV1 ovarian): > 100 µM | TGI (SK-MEL-28 melanoma): > 100 µM | TGI (NCI-H460 lung): > 100 µM | TGI (OVCAR-5 ovarian): > 100 µM | TGI (PC-3 prostate): > 100 µM | TGI (SN12C renal): > 100 µM | TGI (OVCAR-4 ovarian): > 100 µM | TGI (SW-620 colon): > 100 µM | TGI (NCI-H226 lung): > 100 µM

Brc1ccc(-c2[nH]c3ccccc3c2N=Nc2ccccc2)cc1
TGI (M14 melanoma): 33.5 µM | TGI (DU-145 prostate): 32.2 µM | TGI (T-47D breast): 32.5 µM | TGI (SK-MEL-2 melanoma): 36.7 µM | TGI (HS 578T breast): 44.1 µM | TGI (KM12 colon): 36.1 µM | TGI (A549 NSCLC): 30.5 µM | TGI (U251 CNS): 33.9 µM | TGI (UO-31 renal): 29.9 µM | TGI (HCT-116 colon): 34.8 µM | TGI (MDA-MB-435): 34.5 µM | TGI (MDA-N): 30.5 µM | TGI (HOP-92 NSCLC): 36.2 µM | TGI (BT-549 breast): 41.5 µM | TGI (HCC-2998 colon): 30.7 µM | TGI (RXF 393 renal): 30.8 µM | TGI (786-0 renal): 32.9 µM | TGI (SR leukemia): 51.8 µM | TGI (MCF7 breast): 31.7 µM | TGI (MDA-MB-231 breast): 35.8 µM | TGI (SF-268 CNS): 36 µM | TGI (OVCAR-3 ovarian): 26.8 µM | TGI (COLO 205 colon): 28.5 µM | TGI (CAKI-1 renal): 27.8 µM | TGI (SNB-75 CNS): 33.9 µM | TGI (K-562 leukemia): > 100 µM | TGI (SK-MEL-5 melanoma): 32.7 µM | TGI (HL-60(TB) leukemia): 63.4 µM | TGI (A498 renal): 44.1 µM | TGI (TK-10 renal): 37.8 µM | TGI (HOP-62 NSCLC): 34.7 µM | TGI (NCI-H23 lung): 34.1 µM | TGI (MALME-3M melanoma): 36.1 µM | TGI (SNB-19 CNS): 38.1 µM | TGI (UACC-257 melanoma): 35.1 µM | TGI (LOX IMVI melanoma): 65.2 µM | TGI (EKVX NSCLC): 32.9 µM | TGI (SF-539 CNS): 32 µM | TGI (NCI-H522 lung): 34.6 µM | TGI (HCT-15 colon): 30 µM | TGI (UACC-62 melanoma): 36.7 µM | TGI (SF-295 CNS): 33.3 µM | TGI (RPMI-8226 leukemia): 58 µM | TGI (ACHN renal): 37.2 µM | TGI (MOLT-4 leukemia): 38.6 µM | TGI (SK-OV-3 ovarian): 33 µM | TGI (IGROV1 ovarian): 26.2 µM | TGI (SK-MEL-28 melanoma): 37.8 µM | TGI (NCI-H460 lung): 31.8 µM | TGI (OVCAR-5 ovarian): 33.5 µM | TGI (PC-3 prostate): 32.6 µM | TGI (SN12C renal): 31.6 µM | TGI (OVCAR-4 ovarian): 30.4 µM | TGI (SW-620 colon): 35.3 µM
